Data as given in publication PMC10619132 (RSC Chemical Biology, 2023).

Key:
[1] = molecular target: YAP:TEAD1 complex (Homo sapiens, UniProt P28347); test: Anti-FLAG co-immunoprecipitation of HA-YAP in HEK293T cells; format: cell-based; conditions: 10 μM, 24 hours
[2] = molecular target: YAP:TEAD4 complex (Homo sapiens, UniProt Q15561); test: as above; format: cell-based; conditions: 10 μM, 24 hours
[3] = molecular target: YAP:TEAD2 complex (Homo sapiens, UniProt Q15562); test: as above; format: cell-based; conditions: 10 μM, 24 hours
[4] = tested on: Gal4-TEAD4 fusion protein with YAP; test: Gal4-TEAD4 / YAP UAS-LUC reporter assay in HEK293T cells; format: cell-based; conditions: 20 μM, 24 hours
[5] = molecular target: YAP–TEAD4-YBD interaction (Homo sapiens, UniProt Q15561); test: Primary FP screening assay, 1536-well; format: binding; conditions: read-out: IC50 in the primary FP screening assay
Sequence of YAP–TEAD4-YBD interaction (Q15561 216-434): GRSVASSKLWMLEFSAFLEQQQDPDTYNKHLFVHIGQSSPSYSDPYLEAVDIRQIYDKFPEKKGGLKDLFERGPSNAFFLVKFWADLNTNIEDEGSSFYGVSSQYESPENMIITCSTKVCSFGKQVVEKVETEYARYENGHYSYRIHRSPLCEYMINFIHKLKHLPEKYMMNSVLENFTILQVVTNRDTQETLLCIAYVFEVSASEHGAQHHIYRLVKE

Sequence of YAP:TEAD2 complex (Q15562 whole entry, the tested form may be a part, one chain of several): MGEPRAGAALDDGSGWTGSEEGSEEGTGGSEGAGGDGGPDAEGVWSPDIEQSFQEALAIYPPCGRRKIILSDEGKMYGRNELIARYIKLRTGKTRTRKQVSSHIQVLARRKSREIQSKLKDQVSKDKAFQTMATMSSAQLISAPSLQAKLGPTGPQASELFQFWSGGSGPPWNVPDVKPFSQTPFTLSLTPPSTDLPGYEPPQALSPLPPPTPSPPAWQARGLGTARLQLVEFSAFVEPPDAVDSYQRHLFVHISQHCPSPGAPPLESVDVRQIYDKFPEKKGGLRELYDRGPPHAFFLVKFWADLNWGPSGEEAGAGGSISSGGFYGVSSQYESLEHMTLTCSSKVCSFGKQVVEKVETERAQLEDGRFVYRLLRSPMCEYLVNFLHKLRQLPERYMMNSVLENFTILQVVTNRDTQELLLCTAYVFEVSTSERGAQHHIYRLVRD
Sequence of YAP:TEAD4 complex (Q15561 whole entry, one chain of several): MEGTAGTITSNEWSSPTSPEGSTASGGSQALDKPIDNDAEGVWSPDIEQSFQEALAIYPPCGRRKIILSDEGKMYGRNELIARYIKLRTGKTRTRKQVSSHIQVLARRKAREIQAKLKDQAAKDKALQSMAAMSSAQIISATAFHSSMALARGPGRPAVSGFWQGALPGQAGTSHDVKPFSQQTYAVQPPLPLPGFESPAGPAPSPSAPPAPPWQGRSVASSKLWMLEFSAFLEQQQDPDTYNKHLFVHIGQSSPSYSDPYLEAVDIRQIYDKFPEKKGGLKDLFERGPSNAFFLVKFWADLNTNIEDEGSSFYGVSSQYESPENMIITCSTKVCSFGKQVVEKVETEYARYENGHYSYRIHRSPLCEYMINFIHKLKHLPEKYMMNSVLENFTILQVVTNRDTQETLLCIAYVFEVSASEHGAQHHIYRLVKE
Sequence of YAP:TEAD1 complex (P28347 whole entry, one chain of several): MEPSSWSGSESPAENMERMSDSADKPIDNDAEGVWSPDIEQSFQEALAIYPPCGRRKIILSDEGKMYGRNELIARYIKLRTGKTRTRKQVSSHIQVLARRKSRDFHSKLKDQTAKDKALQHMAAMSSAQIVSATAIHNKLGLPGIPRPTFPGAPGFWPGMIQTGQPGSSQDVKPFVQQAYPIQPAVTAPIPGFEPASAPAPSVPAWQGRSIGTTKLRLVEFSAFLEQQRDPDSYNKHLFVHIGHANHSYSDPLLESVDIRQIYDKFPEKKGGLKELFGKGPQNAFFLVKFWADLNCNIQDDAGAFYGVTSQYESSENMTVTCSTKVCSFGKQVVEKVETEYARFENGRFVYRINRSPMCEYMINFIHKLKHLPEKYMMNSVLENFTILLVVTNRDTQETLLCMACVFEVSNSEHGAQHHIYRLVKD

inhibition of HA-YAP association with FLAG-TEAD4 [2]	inhibition of HA-YAP association with FLAG-TEAD2 [3]	IC50 [5] [nM]	Molecule	inhibition of HA-YAP association with FLAG-TEAD1 [1]	decrease in YAP-driven luciferase signal [4] [%]
strongly inhibited	lesser inhibitory effect	–	C=CC(=O)N1C[C@@H](n2cc(-c3cccnc3)nn2)[C@H](OCc2ccc(C(F)(F)F)cc2)C1 [MYF-03-69]	robustly inhibited the association with TEAD1 transgene	–
–	–	544	Verteporfin [VTP]	–	88
